In DBAASP:
In brackets after ≈: the same amount, converted by molar mass.

Key:
Test in all cases: ≥ marks a high value that may be exact or a test limit, other limits are often not marked, values filed in µg/mL are converted to µM
[1] = test system: Escherichia coli KCTC 1682
[2] = test system: Staphylococcus aureus KCTC 1621
[3] = test system: Salmonella typhimurium KCTC 1926
[4] = test system: Staphylococcus epidermidis KCTC 1917
[5] = test system: Pseudomonas aeruginosa KCTC 1637
Klebsiella pneumoniae = test system: Klebsiella pneumoniae
Bacillus subtilis = test system: Bacillus subtilis
[6] = test system: Pseudomonas aeruginosa ATCC 27853
[7] = test system: Staphylococcus aureus ATCC 6538
Escherichia coli K-12 = test system: Escherichia coli K-12
[8] = test system: Staphylococcus aureus ATCC 25923
[9] = test system: Salmonella enterica serovar Typhimurium
[10] = test system: Pseudomonas aeruginosa PAO1
[11] = test system: Escherichia coli ATCC 25922
[12] = test system: Escherichia coli NCTC 10418
Candida albicans = test system: Candida albicans
[13] = test system: Bacillus subtilis KCTC 3068
[14] = test system: Candida albicans ATCC 10231
[15] = test system: Pseudomonas aeruginosa ATCC 9027

MIC [1] | MIC [2] | MIC [3] | MIC [4] | MIC [5] | MIC [11] | Compound | also measured
2 µM (≈ 2.94 µg/mL) | 2 µM (≈ 2.94 µg/mL) | 1 µM (≈ 1.47 µg/mL) | 1 µM (≈ 1.47 µg/mL) | 2 µM (≈ 2.94 µg/mL) | – | CC[C@H](C)[C@H](N)C(=O)N[C@@H](CC(C)C)C(=O)NCC(=O)N[C@@H](CCCCN)C(=O)N[C@H](C(=O)N[C@@H](CC(C)C)C(=O)N[C@@H](CCCCN)C(=O)NCC(=O)N[C@H](C(=O)N[C@@H](CCCCN)C(=O)N[C@@H](CCCCN)C(=O)N[C@@H](CC(C)C)C(=O)N[C@@H](Cc1ccccc1)C(N)=O)[C@@H](C)CC)[C@@H](C)CC [ILGKILKGIKKLF] | –
– | – | – | – | – | – | CC[C@H](C)[C@H](NC(=O)[C@H](C)NC(=O)[C@H](CCCCN)NC(=O)[C@H](C)NC(=O)[C@H](CCSC)NC(=O)CNC(=O)CNC(=O)[C@H](CC(C)C)NC(=O)[C@@H](NC(=O)[C@@H](NC(=O)[C@H](CC(N)=O)NC(=O)CNC(=O)[C@H](CCSC)NC(=O)[C@H](CCCN=C(N)N)NC(=O)[C@H](CCC(=O)O)NC(=O)[C@H](CC(=O)O)NC(=O)[C@@H](NC(=O)[C@H](CCCCN)NC(=O)[C@H](CCCCN)NC(=O)[C@H](CCC(N)=O)NC(=O)[C@@H](NC(=O)[C@H](CCCCN)NC(=O)[C@H](CCC(=O)O)NC(=O)[C@H](CCC(=O)O)NC(=O)[C@H](CC(N)=O)NC(=O)[C@@H](NC(=O)[C@H](Cc1c[nH]c2ccccc12)NC(=O)CN)[C@@H](C)CC)[C@@H](C)CC)[C@@H](C)CC)[C@@H](C)O)C(C)C)C(=O)N[C@H](C(=O)N[C@@H](Cc1cnc[nH]1)C(=O)N[C@@H](CCCCN)C(=O)N[C@@H](CCSC)C(=O)N[C@@H](C)C(=O)N[C@@H](CCCCN)C(=O)N[C@@H](CC(N)=O)C(=O)N[C@@H](CCC(=O)O)C(=O)N[C@@H](Cc1ccccc1)C(=O)N[C@@H](CCC(N)=O)C(=O)N[C@H]1CSSC[C@@H]2NC(=O)[C@H](Cc3ccc(O)cc3)NC(=O)CNC(=O)[C@H](CCCCN)NC(=O)[C@H](CCC(=O)O)NC(=O)CNC(=O)[C@H](CO)NC(=O)[C@H]([C@@H](C)O)NC(=O)[C@H](CCC(N)=O)NC(=O)[C@@H]3CSSC[C@@H](C(=O)NCC(=O)N[C@H](C(=O)N4CCC[C@H]4C(=O)N[C@@H](CC(C)C)C(=O)N[C@@H](CO)C(=O)N[C@@H](Cc4ccc(O)cc4)C(=O)O)[C@@H](C)O)NC(=O)[C@H](CCCCN)NC(=O)[C@H](CSSC[C@H](NC(=O)[C@H](CC(N)=O)NC(=O)CNC(=O)[C@H](CC(C)C)NC(=O)[C@H](CCSC)NC(=O)[C@H](CC(=O)O)NC(=O)[C@H](CCSC)NC(=O)[C@H](CC(N)=O)NC(=O)[C@H](C)NC(=O)[C@H](CCSC)NC1=O)C(=O)N[C@@H](CCC(=O)O)C(=O)N[C@@H](CCCCN)C(=O)N[C@@H](Cc1cnc[nH]1)C(=O)N3)NC(=O)[C@H](CCCCN)NC(=O)[C@H]([C@@H](C)O)NC(=O)CNC(=O)[C@H](Cc1cnc[nH]1)NC2=O)C(C)C [GWINEEKIQKKIDERMGNTVLGGMAKAIVHKMAKNEFQCMANMDMLGNCEKHCQTSGEKGYCHGTKCKCGTPLSY] | MIC (Klebsiella pneumoniae): 10 µM (≈ 83.5 µg/mL); MIC (Bacillus subtilis): 1 µM (≈ 8.35 µg/mL)
– | – | – | – | – | – | CC[C@H](C)[C@H](NC(=O)[C@H](CCCCN)NC(=O)[C@H](CCCCN)NC(=O)[C@H](Cc1ccccc1)NC(=O)[C@H](C)NC(=O)[C@H](CCCCN)NC(=O)[C@H](Cc1c[nH]c2ccccc12)NC(=O)[C@@H](N)CCCCN)C(=O)N[C@@H](CCC(=O)O)C(=O)N[C@@H](CCCCN)C(=O)N[C@@H](CCSC)C(=O)N[C@H](C(=O)N[C@@H](CCCN=C(N)N)C(=O)N[C@@H](CC(N)=O)C(=O)N[C@H](C(=O)N[C@@H](CCCN=C(N)N)C(=O)N[C@@H](CC(N)=O)C(=O)N[C@@H](CCCCN)C(=O)N[C@H](C(=O)N[C@H](C(=O)N[C@@H](CCCCN)C(N)=O)C(C)C)[C@@H](C)CC)[C@@H](C)CC)[C@@H](C)CC [KWKAFKKIEKMIRNIRNKIVK] | MIC [6]: > 3 µM; MIC [7]: > 12 µM; MIC (Escherichia coli K-12): 3 µM (≈ 8.01 µg/mL)
– | – | – | – | – | 44.4 µM (≈ 64 µg/mL) | CC[C@H](C)[C@H](NC(=O)[C@H](CCCN=C(N)N)NC(=O)[C@H](Cc1c[nH]c2ccccc12)NC(=O)[C@H](CS)NC(=O)[C@@H](N)C(C)C)C(=O)N[C@@H](CCCN=C(N)N)C(=O)N[C@H](C(=O)N[C@@H](C)C(=O)N[C@H](C(=O)N[C@H](C(=O)N[C@@H](CCCN=C(N)N)C(=O)N[C@@H](C)C(=O)O)[C@@H](C)CC)C(C)C)C(C)C [VCWRIRVAVIRA] | MIC [8]: 22.2 µM (≈ 32 µg/mL); MIC [9]: ≥ 44.4 µM; MIC [10]: 44.4 µM (≈ 64 µg/mL)
– | – | – | – | – | – | CC[C@H](C)[C@H](NC(=O)CNC(=O)[C@@H]1CCCN1C(=O)[C@@H]1CCCN1C(=O)[C@H](Cc1ccccc1)NC(=O)[C@H](Cc1ccccc1)NC(=O)[C@@H]1CCCN1C(=O)[C@H](Cc1ccccc1)NC(=O)[C@@H](N)CO)C(=O)N[C@H]1CSSC[C@@H](C(=O)O)NC(=O)[C@H](CCCN=C(N)N)NC(=O)[C@H](CCCCN)NC(=O)[C@H](CC(C)C)NC(=O)[C@H](CCCN=C(N)N)NC(=O)[C@H](CCCCN)NC1=O [SFPFFPPGICKRLKRC] | MIC [12]: ≥ 35 µM
– | – | – | – | – | 47.5 µM (≈ 128 µg/mL) | CC[C@H](C)[C@H](NC(=O)CNC(=O)[C@H](CC(N)=O)NC(=O)[C@@H](NC(=O)[C@H](C)NC(=O)[C@H](CC(N)=O)NC(=O)[C@H](CC(C)C)NC(=O)[C@H](C)NC(=O)[C@H](C)NC(=O)[C@H](CCCN=C(N)N)NC(=O)CNC(=O)[C@H](C)NC(=O)[C@H](C)NC(=O)[C@H](C)NC(=O)[C@H](C)NC(=O)[C@H](CCSC)NC(=O)[C@H](CC(=O)O)NC(=O)[C@H](CCCCN)NC(=O)[C@@H](NC(=O)[C@H](CO)NC(=O)[C@H](CO)NC(=O)[C@H](Cc1c[nH]c2ccccc12)NC(=O)[C@H](CC(C)C)NC(=O)[C@@H](N)CO)[C@@H](C)CC)C(C)C)C(=O)N[C@H](C(=O)N[C@@H](CC(N)=O)C(=O)N1CCC[C@H]1C(N)=O)C(C)C [SLWSSIKDMAAAAGRAALNAVNGIVNP] | MIC (Candida albicans): > 190 µM; MIC [8]: 190 µM (≈ 512 µg/mL); MIC (Klebsiella pneumoniae): > 190 µM
30.3 µM (≈ 50 µg/mL) | 15.1 µM (≈ 25 µg/mL) | 15.1 µM (≈ 25 µg/mL) | 15.1 µM (≈ 25 µg/mL) | 15.1 µM (≈ 25 µg/mL) | – | CC[C@H](C)[C@H](NC(=O)[C@H](CCCN=C(N)N)NC(=O)[C@H](Cc1c[nH]c2ccccc12)NC(=O)[C@H](CC(C)C)NC(=O)[C@@H](N)CCCN=C(N)N)C(=O)N[C@H](C(=O)N[C@H](C(=O)N[C@H](C(=O)N[C@@H](CCCN=C(N)N)C(=O)N[C@H](C(=O)N[C@@H](Cc1c[nH]c2ccccc12)C(=O)N[C@@H](CCCN=C(N)N)C(N)=O)C(C)C)[C@@H](C)CC)C(C)C)C(C)C [RLWRIVVIRVWR] | MIC [13]: 30.3 µM (≈ 50 µg/mL)
– | – | – | – | – | 8580 µM (≈ 4520 µg/mL) | N[C@@H](CC(=O)O)C(=O)N[C@@H](CC(=O)O)C(=O)N[C@@H](CC(=O)O)C(=O)N[C@@H](Cc1ccc(O)cc1)C(=O)O [DDDY] | MIC [14]: 4290 µM (≈ 2260 µg/mL); MIC [15]: 68700 µM (≈ 36200 µg/mL)
– | – | – | – | – | – | CC[C@H](C)[C@H](NC(=O)[C@H](CCCN=C(N)N)NC(=O)[C@H](CCC(N)=O)NC(=O)[C@@H](NC(=O)[C@@H](NC(=O)[C@H](CCCN=C(N)N)NC(=O)[C@H](CCCCN)NC(=O)[C@H](Cc1ccccc1)NC(=O)[C@H](CC(=O)O)NC(=O)CNC(=O)[C@H](CC(C)C)NC(=O)[C@@H](N)CC(C)C)[C@@H](C)CC)C(C)C)C(=O)N[C@@H](CCCCN)C(=O)N[C@@H](CC(=O)O)C(=O)N[C@@H](Cc1ccccc1)C(N)=O [LLGDFKRIVQRIKDF] | MIC (Escherichia coli K-12): ≥ 250 µM
2 µM (≈ 4.02 µg/mL) | 2 µM (≈ 4.02 µg/mL) | 2 µM (≈ 4.02 µg/mL) | 1 µM (≈ 2.01 µg/mL) | 4 µM (≈ 8.04 µg/mL) | – | NCCCC[C@H](NC(=O)[C@H](CCCCN)NC(=O)[C@H](Cc1c[nH]c2ccccc12)NC(=O)[C@H](CCCCN)NC(=O)[C@@H]1CCCN1C(=O)[C@H](Cc1c[nH]c2ccccc12)NC(=O)[C@H](Cc1c[nH]c2ccccc12)NC(=O)[C@@H]1CCCN1C(=O)[C@H](CCCCN)NC(=O)[C@H](Cc1c[nH]c2ccccc12)NC(=O)[C@H](Cc1c[nH]c2ccccc12)NC(=O)[C@@H]1CCCN1C(=O)[C@H](CCCCN)NC(=O)[C@@H](N)CCCCN)C(=O)O [KKPWWKPWWPKWKK] | MIC [13]: 1 µM (≈ 2.01 µg/mL)
